The text below walks through data of patent US8629180B2, “Antiseptic agent composition” (Taiyo Corporation, priority 2009, dated 2014).

The test system of assay [1] is S. aureus. Nature of the assay: Antiseptic and bactericidal effect found by the applicant (background). The class given is cell-based. The following applies: background statement, the present applicant has found.
The test system of assay [2] is E. coli. Described as above. The class given is cell-based. The note with it: background statement, the present applicant has found.

In the case of glycerin ricinoleic acid monoester, the “antiseptic and bactericidal effects on S. aureus (in words)” value in assay [1] is “exerts antiseptic and bactericidal effects”. In assay [2], the “antiseptic and bactericidal effect on E. coli (in words)” value is “almost no antiseptic and bactericidal effect”.
